# Experimental data published in PMC6277767, “Broad and Region-Specific Impacts of the Synthetic Cannabinoid CP 55,940 in Adolescent and Adult Female Mouse Brains” (Frontiers in Molecular Neuroscience, 2018).
# Test system: CD1 female mouse brain lipidome
# Test: Brain-region lipid levels (HPLC/MS/MS lipidomics) 2 h after single i.p. 3 mg/kg CP 55,940 vs vehicle
# Assay type: in vivo
# Protocol: The Bloomington Institutional Animal Care and Use Committee of Indiana University reviewed and approved the animal procedures. Female mice from the CD1 strain were utilized to match our study examining THC’s effects on the brain lipidome ([Leishman et al., 2018]). Mice were given a single i.p. injection of either 3 mg/kg CP or 1:1:18 cremophor:ethanol:saline vehicle (please refer to the section “3 mg/kg CP Is Relevant for Synthetic Cannabinoid Abuse and Has Stronger Effects on the Female Mouse Brain Lipidome During Adolescence” for a justification of dose and use of female mice). Three different age groups were given injections: PND 35 and PND 50 adolescents, and adult mice (PND 113). At least eight mice in each age group received CP and at least eight received vehicle. Matching the THC study time course ([Leishman et al., 2018]), mice were sacrificed via rapid decapitation 2 h after injection. Brains were immediately removed and flash-frozen in liquid nitrogen, and then stored at -80°C until dissections were performed. Brains were dissected on an ice-cold dissection plate into the following regions: STR, HIPP, CER, THAL, CTX, HYP, MID, and STEM. These abbreviations for these brain areas will be used exclusively when discussing the results generated by these specific dissections. Each dissected area was immediately placed in liquid nitrogen and then stored at -80°C until used for lipid extraction.
# Tissue extracts were performed as previously described ([Bradshaw et al., 2006]; [Stuart et al., 2013]; [Raboune et al., 2014]; [Leishman et al., 2016a],[b], [2017], [2018]). First, samples were shock frozen in liquid nitrogen, weighed, and transferred to a centrifuge tube. The mass of the largest sample was multiplied by 50 to determine how many milliliters of HPLC-grade methanol (Fisher, Fair Lawn, NJ, United States) to add. Then, samples were spiked with 500 pmol deuterium-labeled NAGly (d8NAGly; Cayman Chemical, Ann Arbor, MI, United States). Samples were placed on ice in darkness for 2 h then individually homogenized and centrifuged at 19,000 × g for 20 min at 20°C. Supernatants were diluted with HPLC water (purified in house) to make a solution of 75% water, 25% supernatant. Lipids were partially purified on C18 solid phase extraction columns (Agilent, Palo Alto, CA, United States). A series of four elutions with 1.5 mL of 60%, 75%, 85%, and 100% methanol were collected ([Stuart et al., 2013]; [Leishman et al., 2016a],[b], [2018]).
# As previously described ([Bradshaw et al., 2006]; [Tan et al., 2006]; [Smoum et al., 2010]; [Stuart et al., 2013]; [Tortoriello et al., 2013]; [Raboune et al., 2014]; [Leishman et al., 2016a],[b], [2017], [2018]), samples were analyzed using an Applied Biosystems API 3000 triple quadrupole mass spectrometer with electrospray ionization (Foster City, CA, United States). Using an Agilent XDB-C18 reversed phase analytical column and optimized mobile phase gradients, 20 μL from each elution were chromatographed. Two Shimadzu 10ADvp pumps (Columbia, MD, United States) provided the pressure for gradient elution. Mobile phase A: 20% methanol, 80% water (v/v) and 1 mM ammonium acetate (Sigma, St. Louis, MO, United States). Mobile phase B: 100% methanol, 1 mM ammonium acetate. Every method run began with 0% mobile phase B, reached 100% mobile phase B flowing at 0.2 mL/min, and gradually returned to 0% mobile phase B.
# This screening library will be referred to as the lipidome when discussing data from this study. HPLC/MS/MS data were analyzed using Analyst software (Applied Biosystems) ([Bradshaw et al., 2006]; [Tan et al., 2006]; [Stuart et al., 2013]; [Tortoriello et al., 2013]; [Raboune et al., 2014]; [Leishman et al., 2016a],[b], [2017], [2018]). Chromatograms (Supplementary Figure 3) were generated by determining the retention time of analytes from the analytical column with a [M-1] or [M+1] parent peak and a fragmentation peak corresponding to the programmed values. […]
smiles,measurement,setting,value
"CCCCCCC(C)(C)c1ccc([C@@H]2C[C@H](O)CC[C@H]2CCCO)c(O)c1 [CP 55,940]",PGF2α level vs vehicle,PND 35 STR,↑ (1-1.49 times higher than vehicle)
same,2-linoleoyl glycerol level vs vehicle,PND 35 THAL,↓ (1-1.49 times lower than vehicle)
same,6-ketoPGF1α level vs vehicle,PND 35 THAL,↓ (1-1.49 times lower than vehicle)
same,N- stearoyl valine level vs vehicle,PND 35 THAL,↑ (1-1.49 times higher than vehicle)
same,N-arachidonoyl GABA level vs vehicle,PND 35 THAL,↓ (1-1.49 times lower than vehicle)
same,N-arachidonoyl alanine level vs vehicle,PND 35 THAL,↓ (1-1.49 times lower than vehicle)
same,N-arachidonoyl ethanolamine level vs vehicle,PND 35 THAL,↑ (1-1.49 times higher than vehicle)
same,N-arachidonoyl glycine level vs vehicle,PND 35 THAL,↓ (1-1.49 times lower than vehicle)
same,N-arachidonoyl phenylalanine level vs vehicle,PND 35 THAL,↑ (1-1.49 times higher than vehicle)
same,N-arachidonoyl serine level vs vehicle,PND 35 THAL,↓ (1-1.49 times lower than vehicle)
same,N-arachidonoyl taurine level vs vehicle,PND 35 THAL,↓ (1-1.49 times lower than vehicle)
same,N-docosahexaenoyl GABA level vs vehicle,PND 35 THAL,↓ (1-1.49 times lower than vehicle)
same,N-docosahexaenoyl alanine level vs vehicle,PND 35 THAL,↓ (1-1.49 times lower than vehicle)
same,N-docosahexaenoyl glycine level vs vehicle,PND 35 THAL,↓ (1-1.49 times lower than vehicle)
same,N-docosahexaenoyl leucine level vs vehicle,PND 35 THAL,↑↑ (1.50-1.99 times higher than vehicle)
same,N-docosahexaenoyl phenylalanine level vs vehicle,PND 35 THAL,↑ (1-1.49 times higher than vehicle)
same,N-linoleoyl ethanolamine level vs vehicle,PND 35 THAL,↑ (1-1.49 times higher than vehicle)
same,N-oleoyl GABA level vs vehicle,PND 35 THAL,↓ (1-1.49 times lower than vehicle)
same,N-oleoyl alanine level vs vehicle,PND 35 THAL,↓ (1-1.49 times lower than vehicle)
same,N-oleoyl glycine level vs vehicle,PND 35 THAL,↓ (1-1.49 times lower than vehicle)
same,N-oleoyl leucine level vs vehicle,PND 35 THAL,↑ (1-1.49 times higher than vehicle)
same,N-oleoyl valine level vs vehicle,PND 35 THAL,↑ (1-1.49 times higher than vehicle)
same,N-palmitoyl GABA level vs vehicle,PND 35 THAL,↑ (1-1.49 times higher than vehicle)
same,N-palmitoyl leucine level vs vehicle,PND 35 THAL,↑ (1-1.49 times higher than vehicle)
same,N-palmitoyl phenylalanine level vs vehicle,PND 35 THAL,↑ (1-1.49 times higher than vehicle)
same,N-palmitoyl tyrosine level vs vehicle,PND 35 THAL,↑ (1-1.49 times higher than vehicle)
same,N-palmitoyl valine level vs vehicle,PND 35 THAL,↑↑ (1.50-1.99 times higher than vehicle)
same,N-stearoyl serine level vs vehicle,PND 35 THAL,↓ (1-1.49 times lower than vehicle)
same,N-stearoyl tyrosine level vs vehicle,PND 35 THAL,↓ (1-1.49 times lower than vehicle)
same,PGE2 level vs vehicle,PND 35 THAL,↑ (1-1.49 times higher than vehicle)
same,phosphoLEA level vs vehicle,PND 35 THAL,↑ (1-1.49 times higher than vehicle)
same,changes in NAEs,PND 35 brain,17
same,changes in PG levels,PND 35 brain,15
same,changes in lipoamines derived from AA,PND 35 brain,50
same,decreases in 2-acyl glycerol levels,PND 35 brain,15
same,decreases in PG levels,PND 35 brain,5
same,decreases in free fatty acid levels,PND 35 brain,Eight
same,increases in PG levels,PND 35 brain,10
same,percentage of detected lipids modified with acute CP,"PND 35 brain, 529 detected",43.67%
same,"2-arachidonoyl glycerol, Direction (relative to Veh)",PND 35 hypothalamus,↓
same,"2-arachidonoyl glycerol, Magnitude (x Veh level)",PND 35 hypothalamus,0.39 x Veh level
same,2-linoleoyl glycerol Direction (relative to Veh),PND 35 hypothalamus,↓
same,2-linoleoyl glycerol Magnitude (x Veh level),PND 35 hypothalamus,0.63 x Veh level
same,"2-oleoyl glycerol, Direction (relative to Veh)",PND 35 hypothalamus,↓
same,"2-oleoyl glycerol, Magnitude (x Veh level)",PND 35 hypothalamus,0.55 x Veh level
same,"2-palmitoyl glycerol, Direction (relative to Veh)",PND 35 hypothalamus,↑
same,"2-palmitoyl glycerol, Magnitude (x Veh level)",PND 35 hypothalamus,1.29 x Veh level
same,"Arachidonic acid, Direction (relative to Veh)",PND 35 hypothalamus,↓
same,"Arachidonic acid, Magnitude (x Veh level)",PND 35 hypothalamus,0.85 x Veh level
same,"Linoleic acid, Direction (relative to Veh)",PND 35 hypothalamus,↓
same,"Linoleic acid, Magnitude (x Veh level)",PND 35 hypothalamus,0.75 x Veh level
same,N-arachidonoyl GABA Direction (relative to Veh),PND 35 hypothalamus,↓
same,N-arachidonoyl GABA Magnitude (x Veh level),PND 35 hypothalamus,0.74 x Veh level
same,N-arachidonoyl alanine Magnitude (x Veh level),PND 35 hypothalamus,0.55 x Veh level
same,"N-arachidonoyl alanine, Direction (relative to Veh)",PND 35 hypothalamus,↓
same,"N-arachidonoyl ethanolamine, Direction (relative to Veh)",PND 35 hypothalamus,↓
same,"N-arachidonoyl ethanolamine, Magnitude (x Veh level)",PND 35 hypothalamus,0.76 x Veh level
same,N-arachidonoyl glycine Direction (relative to Veh),PND 35 hypothalamus,↓
same,N-arachidonoyl glycine Magnitude (x Veh level),PND 35 hypothalamus,0.70 x Veh level
same,"N-arachidonoyl phenylalanine, Direction (relative to Veh)",PND 35 hypothalamus,↓
same,"N-arachidonoyl phenylalanine, Magnitude (x Veh level)",PND 35 hypothalamus,0.86 x Veh level
same,N-arachidonoyl taurine Direction (relative to Veh),PND 35 hypothalamus,↓
same,N-arachidonoyl taurine Magnitude (x Veh level),PND 35 hypothalamus,0.70 x Veh level
same,N-docosahexaenoyl GABA Direction (relative to Veh),PND 35 hypothalamus,↓
same,N-docosahexaenoyl GABA Magnitude (x Veh level),PND 35 hypothalamus,0.68 x Veh level
same,"N-docosahexaenoyl ethanolamine, Direction (relative to Veh)",PND 35 hypothalamus,↓
same,"N-docosahexaenoyl ethanolamine, Magnitude (x Veh level)",PND 35 hypothalamus,0.59 x Veh level
same,N-linoleoyl alanine direction (relative to Veh),PND 35 hypothalamus,↓
same,N-linoleoyl alanine magnitude (x Veh level),PND 35 hypothalamus,0.77 x Veh level
same,N-oleoyl GABA Magnitude (x Veh level),PND 35 hypothalamus,0.87 x Veh level
same,N-oleoyl GABA direction (relative to Veh),PND 35 hypothalamus,↓
same,N-oleoyl alanine Magnitude (x Veh level),PND 35 hypothalamus,0.84 x Veh level
same,N-oleoyl alanine direction (relative to Veh),PND 35 hypothalamus,↓
same,"N-oleoyl ethanolamine, Direction (relative to Veh)",PND 35 hypothalamus,↓
same,"N-oleoyl ethanolamine, Magnitude (x Veh level)",PND 35 hypothalamus,0.65 x Veh level
same,"N-palmitoyl ethanolamine, Direction (relative to Veh)",PND 35 hypothalamus,↓
same,"N-palmitoyl ethanolamine, Magnitude (x Veh level)",PND 35 hypothalamus,0.66 x Veh level
same,"N-palmitoyl leucine, Direction (relative to Veh)",PND 35 hypothalamus,↑
same,"N-palmitoyl leucine, Magnitude (x Veh level)",PND 35 hypothalamus,1.30 x Veh level
same,N-stearoyl ethanolamine direction (relative to Veh),PND 35 hypothalamus,↓
same,N-stearoyl ethanolamine magnitude (x Veh level),PND 35 hypothalamus,0.73 x Veh level
same,"Oleic acid, Direction (relative to Veh)",PND 35 hypothalamus,↓
same,"Oleic acid, Magnitude (x Veh level)",PND 35 hypothalamus,0.72 x Veh level
same,PGE2 Direction (relative to Veh),PND 35 hypothalamus,↓
same,PGE2 Magnitude (x Veh level),PND 35 hypothalamus,0.78 x Veh level
same,PGF2α Direction (relative to Veh),PND 35 hypothalamus,↑
same,PGF2α Magnitude (x Veh level),PND 35 hypothalamus,1.27 x Veh level
same,phoshoLEA direction (relative to Veh),PND 35 hypothalamus,↑
same,phoshoLEA magnitude (x Veh level),PND 35 hypothalamus,1.47 x Veh level
same,2-linoleoyl glycerol: Magnitude (x Veh level),"PND 35 midbrain, 3mg/kg",0.76 x Veh level
same,6-ketoPGF1α: Magnitude (x Veh level),"PND 35 midbrain, 3mg/kg",0.86 x Veh level
same,Arachidonic acid: Magnitude (x Veh level),"PND 35 midbrain, 3mg/kg",0.88 x Veh level
same,N-arachidonoyl GABA: Magnitude (x Veh level),"PND 35 midbrain, 3mg/kg",0.69 x Veh level
same,N-arachidonoyl alanine: Magnitude (x Veh level),"PND 35 midbrain, 3mg/kg",0.79 x Veh level
same,N-arachidonoyl glycine: Magnitude (x Veh level),"PND 35 midbrain, 3mg/kg",0.89 x Veh level
same,N-arachidonoyl serine: Magnitude (x Veh level),"PND 35 midbrain, 3mg/kg",0.82 x Veh level
same,N-arachidonoyl taurine: Magnitude (x Veh level),"PND 35 midbrain, 3mg/kg",0.87 x Veh level
same,N-arachidonoyl tyrosine: Magnitude (x Veh level),"PND 35 midbrain, 3mg/kg",0.81 x Veh level
same,N-docosahexaenoyl GABA: Magnitude (x Veh level),"PND 35 midbrain, 3mg/kg",0.72 x Veh level
same,N-docosahexaenoyl alanine: Magnitude (x Veh level),"PND 35 midbrain, 3mg/kg",0.82 x Veh level
same,N-docosahexaenoyl glycine: Magnitude (x Veh level),"PND 35 midbrain, 3mg/kg",0.88 x Veh level
same,N-docosahexaenoyl leucine: Magnitude (x Veh level),"PND 35 midbrain, 3mg/kg",1.40 x Veh level
